Test systems include KM20L2 colon; SNB-78 CNS; LXFL 529 NSCLC; M19-MEL melanoma; HOP-18 NSCLC; DMS 273 small cell lung; DLD-1 colon; XF 498 CNS; RXF-631 renal; SN12K1 renal; P388/ADR leukemia.
Holding throughout (assay): NCI tumour cell line growth inhibition, 48 h

SMILES strings stand for the structures. Where “and” joins values, the source holds several entries; their conditions need not be identical. Equal values may be shown once.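 The compound was tested at five concentrations on cells cultured in 96-well plates, with a 48-hour exposure period. GI50: concentration for 50% inhibition of growth. The concentration for full growth arrest is given as TGI.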

On to `COC1CCCc2c(OC(C)=O)ccc(OC(C)=O)c21` (centres undefined), for which the TGI with KM20L2 colon, in the assay on SNB-78 CNS and with LXFL 529 NSCLC was > 100 µM each time.
For `Cn1cc(-c2ccc3c4ccccc4n(C)c3c2)c2ccccc21`, the TGI with M19-MEL melanoma, with KM20L2 colon, with SNB-78 CNS, with LXFL 529 NSCLC and with HOP-18 NSCLC was > 100 µM in each case.
Consider `N.N.N.N.N#N.N#N.[Cl-].[Os+6]`, for which the GI50 in the assay with DMS 273 small cell lung is > 100 µM; in the assay with KM20L2 colon, > 100 µM; in the assay on DLD-1 colon, > 100 µM; in the assay on SNB-78 CNS, > 100 µM; with LXFL 529 NSCLC it was > 100 µM; in the assay with HOP-18 NSCLC, 23.1 µM. Moreover, the TGI with DMS 273 small cell lung, with KM20L2 colon, in the assay with DLD-1 colon, with SNB-78 CNS, with LXFL 529 NSCLC and with HOP-18 NSCLC was > 100 µM each time.
Take `O=C(n1c2ccccc2c2n[nH]c(=S)nc21)C(F)(F)F`: the TGI in the assay with DMS 273 small cell lung, with M19-MEL melanoma, in the assay with DLD-1 colon, in the assay on XF 498 CNS, in the assay on SNB-78 CNS and with LXFL 529 NSCLC was > 100 µM in each case.
As for `CC(C)(C)C1=CC(=N/N=c2\scc(-c3ccccc3)n2Cc2ccccc2)C=C(C(C)(C)C)C1=O`, the TGI with DMS 273 small cell lung, in the assay on M19-MEL melanoma, in the assay with KM20L2 colon, in the assay on XF 498 CNS and in the assay on LXFL 529 NSCLC was > 100 µM each time.
For `O=C1c2ccccc2C(=O)c2c1ccc1conc21`, the TGI was 8.17 µM in the assay on DMS 273 small cell lung; 3.09 µM with M19-MEL melanoma; 28.8 µM in the assay on KM20L2 colon; 7.15 µM with DLD-1 colon; > 26.5 µM with RXF-631 renal; 10.3 µM with SNB-78 CNS. The TGI in the assay on LXFL 529 NSCLC worked out at 3.83 µM; in the assay on HOP-18 NSCLC, 26.2 µM.
As to `Cc1c(C)c2cc3c(=O)c(CCl)coc3c(C)c2oc1=O`, the TGI in the assay with M19-MEL melanoma, in the assay with KM20L2 colon, with RXF-631 renal, in the assay on SNB-78 CNS, in the assay with LXFL 529 NSCLC and with HOP-18 NSCLC was > 100 µM throughout.
In the case of `COCN1COCN(C)C1=O`, the TGI in the assay with DMS 273 small cell lung, in the assay on M19-MEL melanoma, in the assay on KM20L2 colon, in the assay on DLD-1 colon, in the assay with XF 498 CNS and in the assay with SNB-78 CNS was > 100 µM each time. In addition, in the assay on HOP-18 NSCLC, the TGI is > 100 µM.
Take `CCOC(=O)c1ccc(N=Cc2ccc(N(CCC#N)S(=O)(=O)c3ccccc3)cc2C)cc1`: the TGI in the assay with DMS 273 small cell lung, in the assay with M19-MEL melanoma, with KM20L2 colon, in the assay with DLD-1 colon, in the assay on XF 498 CNS and in the assay on RXF-631 renal was > 100 µM each time. The TGI in the assay with SNB-78 CNS and with LXFL 529 NSCLC was > 100 µM each time.
With `O=c1[nH]c2nc3ccccc3c(=O)n2nc1Cc1ccccc1`, the TGI in the assay on DMS 273 small cell lung, with KM20L2 colon, in the assay with DLD-1 colon, in the assay on SNB-78 CNS and in the assay with LXFL 529 NSCLC was > 100 µM throughout.
Consider `CC(=O)/C=C1\CC(=O)N(C)c2ccccc2N1`, for which the TGI was > 100 µM with DMS 273 small cell lung; > 100 µM in the assay on M19-MEL melanoma; 22.9 µM in the assay on DLD-1 colon; > 100 µM in the assay on XF 498 CNS; > 100 µM with SNB-78 CNS; > 100 µM in the assay on LXFL 529 NSCLC.
Regarding `CCCCC[C@@H]1CCCC2NC(CCCCCO[Si](c3ccccc3)(c3ccccc3)C(C)(C)C)CCC21` (some centres undefined), the TGI turned out to be 32.4 µM in the assay with DMS 273 small cell lung; 31.8 µM in the assay with M19-MEL melanoma; 23.8 µM in the assay on KM20L2 colon; 28.1 µM in the assay on DLD-1 colon; 27.7 µM in the assay on RXF-631 renal; 30.2 µM in the assay on SNB-78 CNS.
Regarding `COc1ccc2c(c1OC)C(=O)C2`, the TGI with DMS 273 small cell lung, in the assay with M19-MEL melanoma, in the assay with KM20L2 colon, in the assay on XF 498 CNS, in the assay with LXFL 529 NSCLC and with HOP-18 NSCLC was > 100 µM in each case.
In the case of `CCC/C=C/C=C/C(=O)OC1/C(=C/C(=O)OC)CC2CC(C(C)O)OC(=O)CC(O)CC3CC(OC(C)=O)C(C)(C)C(O)(CC4C/C(=C/C(=O)OC)CC(/C=C/C(C)(C)C1(O)O2)O4)O3` (centres undefined), the TGI with DMS 273 small cell lung is > 10.9 µM and 11 µM; in the assay on M19-MEL melanoma, > 10.9 µM and 11 µM; in the assay with KM20L2 colon it was > 10.9 µM and 11 µM; with DLD-1 colon, > 10.9 µM and 11 µM; in the assay on XF 498 CNS, 11 µM; in the assay with SN12K1 renal, > 11 µM. For the same compound, the TGI with P388/ADR leukemia was 10.9 µM and 11 µM; in the assay with SNB-78 CNS it was 7.22 µM and 11 µM; in the assay with HOP-18 NSCLC, 2.52 µM and 10.8 µM. Moreover, the GI50 in the assay with M19-MEL melanoma is > 10.9 µM and 7.88 µM; in the assay on KM20L2 colon it was > 10.9 µM and 6.51 µM; in the assay on XF 498 CNS, 4.43 µM; in the assay with SN12K1 renal it was > 11 µM; in the assay with SNB-78 CNS, 5.56 µM and 10.3 µM; in the assay with HOP-18 NSCLC it was 1.76 µM and 6.05 µM.
On to `O=C(c1ccccc1)c1nc2c(Cl)ccc(Cl)c2cc1C(Br)Br`, for which the TGI is 3.14 µM with DMS 273 small cell lung; 6.26 µM with M19-MEL melanoma; 2.51 µM in the assay with KM20L2 colon; 2.24 µM in the assay on DLD-1 colon; 2.29 µM in the assay with XF 498 CNS; 3.86 µM in the assay with RXF-631 renal. The TGI with SNB-78 CNS amounted to 5.94 µM; in the assay with LXFL 529 NSCLC, 1.55 µM; with HOP-18 NSCLC, 3.17 µM.
Turning to `NC(CSC(c1ccccc1)(c1ccccc1)c1ccccc1)C(=O)O` (centres undefined), the TGI in the assay with DMS 273 small cell lung is 1.55 µM; in the assay on M19-MEL melanoma, 117 µM; in the assay on KM20L2 colon, 5.47 µM; in the assay on DLD-1 colon it was 125 µM; in the assay with XF 498 CNS it was 7.77 µM; in the assay on SN12K1 renal, 2.21 µM. Moreover, the TGI is 125 µM with P388/ADR leukemia, 95.9 µM in the assay on SNB-78 CNS and 116 µM in the assay with HOP-18 NSCLC. Further, the GI50 in the assay on M19-MEL melanoma was 5.07 µM; in the assay on DLD-1 colon it was 0.831 µM; in the assay with XF 498 CNS, 0.711 µM and 0.959 µM; with SNB-78 CNS, 10.8 µM.
As to `O=C(NCCCN1CCN(CCCNC(=O)c2cccc3ccccc23)CC1)c1cccc2ccccc12`, the TGI is > 100 µM with M19-MEL melanoma; 73.5 µM in the assay with KM20L2 colon; 93.9 µM in the assay on XF 498 CNS; > 100 µM with RXF-631 renal; > 100 µM in the assay with SNB-78 CNS; > 100 µM in the assay on LXFL 529 NSCLC. In the assay on HOP-18 NSCLC, the TGI is > 100 µM.
Consider `CN(C)CCCNc1ccnc2c([N+](=O)[O-])cccc12`, for which the TGI in the assay on DMS 273 small cell lung was 32.8 µM; with M19-MEL melanoma, 5.82 µM; with KM20L2 colon, 16.7 µM; in the assay with XF 498 CNS, 28.2 µM; with SNB-78 CNS, > 100 µM.
Regarding `CC1=CC(=O)NP(=O)(Oc2ccc(Cl)cc2)N1` (centres undefined), the TGI with DMS 273 small cell lung, with M19-MEL melanoma, in the assay with KM20L2 colon, in the assay with DLD-1 colon, with XF 498 CNS and in the assay on SNB-78 CNS was > 100 µM throughout. In addition, the TGI with LXFL 529 NSCLC and in the assay with HOP-18 NSCLC was > 100 µM throughout.
On to `Cc1cccc(NC(=O)c2c(N)[n+]([O-])c3ccccc3[n+]2[O-])c1`, for which the TGI in the assay with DMS 273 small cell lung was 22.1 µM; in the assay with M19-MEL melanoma, 23.8 µM; with KM20L2 colon it was 30.5 µM; in the assay with DLD-1 colon, 26 µM; in the assay on XF 498 CNS, 24.5 µM; in the assay with RXF-631 renal it was 3.24 µM. Besides, the TGI in the assay with SNB-78 CNS stood at 35.4 µM; in the assay on LXFL 529 NSCLC, 22.9 µM; with HOP-18 NSCLC it was 32.2 µM.
For the compound `COc1ccc2nc3cc(Cl)ccc3c(Sc3ccc(N)cc3)c2c1`, the TGI in the assay on DMS 273 small cell lung worked out at 23.5 µM; in the assay on M19-MEL melanoma, 20.2 µM; in the assay on KM20L2 colon, 17.9 µM; with DLD-1 colon it was 19.8 µM; in the assay on XF 498 CNS, 27.5 µM; in the assay on RXF-631 renal, 34.4 µM. Besides, the TGI with SNB-78 CNS came to 34 µM; in the assay on LXFL 529 NSCLC, 16 µM; in the assay with HOP-18 NSCLC it was 25.3 µM.
Consider `C=CC[P@]1(=O)O[C@H](c2ccccc2)C(C)N1C(C)C` (some centres undefined), for which the TGI with M19-MEL melanoma, with KM20L2 colon, in the assay with DLD-1 colon, in the assay on XF 498 CNS, with RXF-631 renal and in the assay on LXFL 529 NSCLC was > 100 µM in each case. The TGI with HOP-18 NSCLC was > 100 µM.
In the case of `CC(=O)CC[N+](C)(C)C`, the TGI was 53.2 µM in the assay with DMS 273 small cell lung; > 58.2 µM in the assay on M19-MEL melanoma; > 56.6 µM with KM20L2 colon; 35.4 µM in the assay on DLD-1 colon; > 100 µM in the assay on RXF-631 renal; 19.7 µM with SNB-78 CNS. Moreover, the TGI in the assay with LXFL 529 NSCLC worked out at 27.2 µM; in the assay on HOP-18 NSCLC, 30.5 µM.
For `COc1ccc2[nH]c3c(C)c4c(c(C)c3c2c1)CN(C)C=C4`, the TGI with DMS 273 small cell lung amounted to 10.3 µM; in the assay on M19-MEL melanoma, 5.53 µM; with KM20L2 colon it was 21.1 µM; in the assay with DLD-1 colon it was 32.2 µM; with XF 498 CNS it was 5.78 µM; with SNB-78 CNS, 4.91 µM. The TGI in the assay with LXFL 529 NSCLC stood at 3.61 µM; in the assay on HOP-18 NSCLC it was 47.7 µM.
On to `C=CCCC(O)c1cc(C)c(O)c(C)c1` (centres undefined), for which the TGI in the assay with M19-MEL melanoma, with KM20L2 colon, with SNB-78 CNS, with LXFL 529 NSCLC and with HOP-18 NSCLC was > 100 µM each time.
With `COc1ccccc1/C=C1\C(=O)N(C(=O)Cc2ccccc2)N=C1C`, the TGI in the assay with DMS 273 small cell lung, in the assay with M19-MEL melanoma, in the assay on DLD-1 colon, with XF 498 CNS, with SNB-78 CNS and in the assay on HOP-18 NSCLC was > 100 µM in each case.
For `O=C(O)CCC(O)=C1S(=O)(=O)OCCOS1(=O)=O`, the TGI in the assay on DMS 273 small cell lung, with M19-MEL melanoma, in the assay on KM20L2 colon, with DLD-1 colon, in the assay with SNB-78 CNS and in the assay with LXFL 529 NSCLC was > 100 µM in each case. Moreover, the TGI with HOP-18 NSCLC was > 100 µM.
